Reference: the METLIN SMRT retention time set (Domingo-Almenara et al. 2019)

Assay: gradient 5% acetonitrile 3 min, to 50% in 2 min, to 85% in 15 min, held 3 min, 100 µL/min
Settings: column: Zorbax Extend-C18 2.1 x 50 mm; eluents: water / acetonitrile, 0.1% formic acid
In short: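 Over 3 months, pure standards in mixtures of ~100 molecules were run by HPLC coupled to a quadrupole time-of-flight mass spectrometer in positive and negative ionization mode. The column was a Zorbax Extend-C18 (2.1 × 50 mm, 1.8 μm) at 100 μL/min, eluted with water and acetonitrile each holding 0.1% formic acid, with 40 μL dead and 900 μL dwell volumes. Retention time was determined from adduct peaks chosen by software and checked manually.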

Structure (SMILES)	RP-LC retention time [s]
O=C(NCCc1nc2cccnc2n1Cc1ccccc1)Nc1ccc2c(c1)OCO2	726
COc1ccc(Cl)cc1NC(=O)CSc1nnc2c3cc(-c4ccc(C)cc4)nn3ccn12	1040
Cc1cc(C)cc(NC(=O)N2CCCC(C)(C(=O)NCc3ccccc3)C2)c1 (configuration not stated)	959
CCc1cccc(C)c1Nc1c(-c2ccc(OC)cc2)nc2ncccn12	788
CNC(=O)N1CCCC(c2cccc(C(=O)NCc3cccc(Br)c3)c2)C1 (configuration not stated)	819
COc1ccc(CN(C)Cc2cc(=O)n3ccc(C)cc3n2)cc1	608
O=C(CN1CCN(C(=O)Nc2ccc(Cl)cc2)CC1=O)N1CCN(c2ccc(F)cc2)CC1	766
N#Cc1ccc(C(=O)Nc2cnc(-c3cccc(Cl)c3)nc2)cc1	1050
CCc1ccc(S(=O)(=O)N2CCC(N3CCN(Cc4ccccc4)C(=O)C3=O)CC2)cc1	859
CCOC(=O)c1cc(C)nc2c1c(=O)n(Cc1cccc(C)c1)c(=O)n2C	1130
Cn1ncc(N2CCCC(CC(=O)N3CCC4(CC3)OCCO4)C2)cc1=O (configuration not stated)	625
COc1ccc(Cn2c(C)c(CNCc3ccco3)c(C(=O)O)c2C)cc1	673
COc1ccc(CNC(=O)CCc2conc2-c2ccc(F)cc2)cc1	860
C=CCn1c(=O)c2ccccc2n(Cc2nc(-c3ccccc3)no2)c1=O	1000
COc1ccc(Cl)cc1S(=O)(=O)N1CCC(n2cnnc2-c2ccccc2)CC1	825
O=CN1CC/C(=C/c2ccc3c(c2)OCO3)C1=O	784
O=C(Cn1nc2c(Oc3ccc(F)cc3)nccn2c1=O)NCc1ccccc1	770
Cc1ccccc1CNC(=O)C1CCCN(c2nccnc2Sc2ccccc2)C1 (configuration not stated)	1200
CCOCCCNC(=O)C1CCCN(c2nnc(C)c3c(C)n(-c4ccc(OC)cc4)nc23)C1 (configuration not stated)	665
O=C(COc1ccccc1F)NC1CCCCC1N1C(=O)CSC1=O (configuration not stated)	768
CN1CC(=O)N(CC(=O)Nc2ccc(Cl)c(C(F)(F)F)c2)c2ccccc2C1=O	826
Cc1cc(C)cc(N2C(=O)CN(S(C)(=O)=O)CC2(C)C(=O)NCc2ccccc2)c1 (configuration not stated)	851
COc1ccc(C2C(C(=O)Nc3ccc4c(c3)OCO4)c3ccccc3C(=O)N2C)cc1 (configuration not stated)	835
Cn1ncc2c(N3CCSCC3)nc(C(=O)NCc3cccnc3)nc21	570
Cc1ccccc1Nc1c(-c2ccc(O)cc2)nc2ccccn12	653

Results, then the compound that gave them:

RP-LC retention time [s]	Structure (SMILES)
854	COc1cccc(-c2noc(C3CCCN3C(=O)c3ccoc3)n2)c1 (configuration not stated)
744	CCn1nc(C)c(CCN(C)C(=O)Nc2ccccc2C(=O)OC)c1C
694	COC(=O)c1ccc(NC(=O)N(C)Cc2cc(=O)[nH]c3ccccc23)cc1
1000	CCn1c(=O)sc2cc(S(=O)(=O)N3CCC(C(=O)NCc4cccc(OC)c4)CC3)ccc21
579	CNC(=O)[C@@H]1CN(S(=O)(=O)C(C)C)C[C@H]1COC
1050	CCc1nc2cc(-c3noc(Cc4cccc(F)c4)n3)ccc2o1
692	O=C(NC1CCN(c2cc(-c3ccccc3)[nH]n2)C1)c1ccccc1Cl (configuration not stated)
899	O=C(CN1C(=O)N/C(=C\c2ccc(Cl)cc2)C1=O)Nc1ccc(Cl)cc1
623	CN(CCNC(=O)C1CCCN(c2ncnc3c2nc2n3CCCCC2)C1)Cc1ccccc1 (configuration not stated)
670	CCOc1ccc(NC(=O)Cc2nnc(-c3ccncc3)o2)cc1
748	COc1cc(NS(=O)(=O)c2cc3n(c2)CCN(C(C)C)C3=O)cc(OC)c1
1140	Cc1cc(-c2c(C)sc(C)c2S(=O)(=O)NC2CCCCCC2)n[nH]1
